Data published in PubChem BioAssay AID1963830 (Molecular Pharmacology Branch, DTP, NCI, 2024).

System: 922993-354-T-J3-PDC complex spheroid viability
Assay: Anticancer human tumor 922993-354-T-J3-PDC patient-derived endometrial carcinoma cell line growth inhibition [POLQ]
Conditions: for IC50: curve of first compound; for viability, T/C: stronger effect = lower value; active means viability on the fitted dose curve at most 10% of control; inactive means the rest
Procedure, shortened: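 Three-cell-type spheroids modelling solid tumor plus stroma served as the readout system; POL inhibitors were tested individually and in combination, concentration ranges set by clinical Cmax where known.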

[1] = second compound 0.0316 µM, first compound 0.0316 µM
[2] = second compound 0.0316 µM, first compound 0.1 µM
[3] = second compound 0.0316 µM, first compound 0.316 µM
[4] = second compound 0.0316 µM, first compound 1 µM
[5] = second compound 0.0316 µM, first compound 3.16 µM
[6] = second compound 0.0316 µM, first compound 10 µM
[7] = second compound 0.1 µM, first compound 0.0316 µM
[8] = second compound 0.1 µM, first compound 0.1 µM
[9] = second compound 0.1 µM, first compound 0.316 µM
[10] = second compound 0.1 µM, first compound 1 µM
[11] = second compound 0.1 µM, first compound 3.16 µM
[12] = second compound 0.1 µM, first compound 10 µM
[13] = second compound 0.316 µM, first compound 0.0316 µM
[14] = second compound 0.316 µM, first compound 0.1 µM
[15] = second compound 0.316 µM, first compound 0.316 µM
[16] = second compound 0.316 µM, first compound 1 µM
[17] = second compound 0.316 µM, first compound 3.16 µM
[18] = second compound 0.316 µM, first compound 10 µM
[19] = second compound 1 µM, first compound 0.0316 µM
[20] = second compound 1 µM, first compound 0.1 µM
[21] = second compound 1 µM, first compound 0.316 µM
[22] = second compound 1 µM, first compound 1 µM
[23] = second compound 1 µM, first compound 3.16 µM
[24] = second compound 1 µM, first compound 10 µM
[25] = second compound 3.16 µM, first compound 0.0316 µM
[26] = second compound 3.16 µM, first compound 0.1 µM
[27] = second compound 3.16 µM, first compound 0.316 µM
[28] = second compound 3.16 µM, first compound 1 µM
[29] = second compound 3.16 µM, first compound 3.16 µM
[30] = second compound 3.16 µM, first compound 10 µM
[31] = second compound 10 µM, first compound 0.0316 µM
[32] = second compound 10 µM, first compound 0.1 µM
[33] = second compound 10 µM, first compound 0.316 µM
[34] = second compound 10 µM, first compound 1 µM
[35] = second compound 10 µM, first compound 3.16 µM
[36] = second compound 10 µM, first compound 10 µM
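Further: spheroids exposed to the agents for one week.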
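Wherever viability, T/C is given: 100% = DMSO vehicle control wells.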

C#Cc1c(F)ccc2cc(O)cc(-c3ncc4c(N5CC6CCC(C5)N6)nc(OCC56CCCN5CC(F)C6)nc4c3F)c12 (stereo not drawn) + Cc1cccc(N(C)C(=O)C2C(O)CCN2c2nc(C)cc(C(F)(F)F)c2C#N)c1
inactive: viability, T/C [1] 107% | viability, T/C [2] 102% | viability, T/C [3] 104% | viability, T/C [4] 106% | viability, T/C [5] 95.8% | viability, T/C [6] 91.3% | viability, T/C [7] 107% | viability, T/C [8] 95% | viability, T/C [9] 94% | viability, T/C [10] 93.7% | viability, T/C [11] 87.9% | viability, T/C [12] 98.7% | viability, T/C [13] 109% | viability, T/C [14] 108% | viability, T/C [15] 98.5% | viability, T/C [16] 101% | viability, T/C [17] 95% | viability, T/C [18] 91.7% | viability, T/C [19] 102% | viability, T/C [20] 107% | viability, T/C [21] 98.7% | viability, T/C [22] 94.5% | viability, T/C [23] 97.8% | viability, T/C [24] 89.2% | viability, T/C [25] 106% | viability, T/C [26] 101% | viability, T/C [27] 104% | viability, T/C [28] 104% | viability, T/C [29] 99.5% | viability, T/C [30] 86.2% | viability, T/C [31] 103% | viability, T/C [32] 97.2% | viability, T/C [33] 98.1% | viability, T/C [34] 94.8% | viability, T/C [35] 100% | viability, T/C [36] 78.4%
> 10 µM: IC50 (second compound 0.0316 µM) | IC50 (second compound 0.1 µM) | IC50 (second compound 0.316 µM) | IC50 (second compound 1 µM) | IC50 (second compound 3.16 µM) | IC50 (second compound 10 µM)

CCc1cc2c(N3CCc4c(cc(Cn5ccnc5)cc4-c4cn(C)nc4C(F)(F)F)C3=O)cc(C)nc2c(OC)n1 + Cc1cccc(N(C)C(=O)C2C(O)CCN2c2nc(C)cc(C(F)(F)F)c2C#N)c1
inactive: viability, T/C [1] 101% | viability, T/C [2] 105% | viability, T/C [3] 109% | viability, T/C [4] 107% | viability, T/C [5] 102% | viability, T/C [6] 91.7% | viability, T/C [7] 109% | viability, T/C [8] 101% | viability, T/C [9] 108% | viability, T/C [10] 105% | viability, T/C [11] 106% | viability, T/C [12] 97% | viability, T/C [13] 103% | viability, T/C [14] 103% | viability, T/C [15] 107% | viability, T/C [16] 108% | viability, T/C [17] 110% | viability, T/C [18] 98.7% | viability, T/C [19] 102% | viability, T/C [20] 103% | viability, T/C [21] 107% | viability, T/C [22] 105% | viability, T/C [23] 108% | viability, T/C [24] 101% | viability, T/C [25] 103% | viability, T/C [26] 104% | viability, T/C [27] 106% | viability, T/C [28] 105% | viability, T/C [29] 104% | viability, T/C [30] 99.7% | viability, T/C [31] 93.4% | viability, T/C [32] 104% | viability, T/C [33] 105% | viability, T/C [34] 102% | viability, T/C [35] 107% | viability, T/C [36] 98.2%
> 10 µM: IC50 (second compound 0.0316 µM) | IC50 (second compound 0.1 µM) | IC50 (second compound 0.316 µM) | IC50 (second compound 1 µM) | IC50 (second compound 3.16 µM) | IC50 (second compound 10 µM)

O=C(Nc1ccc(O)c(NS(=O)(=O)c2ccc(F)cc2)c1)c1ccc(-c2ccccc2)cc1 + Cc1cccc(N(C)C(=O)C2C(O)CCN2c2nc(C)cc(C(F)(F)F)c2C#N)c1
> 10 µM: IC50 (second compound 0.0316 µM) | IC50 (second compound 0.1 µM) | IC50 (second compound 0.316 µM) | IC50 (second compound 1 µM) | IC50 (second compound 3.16 µM) | IC50 (second compound 10 µM)
inactive: viability, T/C [1] 106% | viability, T/C [2] 104% | viability, T/C [3] 99.2% | viability, T/C [4] 101% | viability, T/C [5] 104% | viability, T/C [6] 105% | viability, T/C [7] 104% | viability, T/C [8] 101% | viability, T/C [9] 106% | viability, T/C [10] 100% | viability, T/C [11] 104% | viability, T/C [12] 104% | viability, T/C [13] 98.8% | viability, T/C [14] 104% | viability, T/C [15] 97.2% | viability, T/C [16] 98.6% | viability, T/C [17] 104% | viability, T/C [18] 103% | viability, T/C [19] 99.6% | viability, T/C [20] 102% | viability, T/C [21] 101% | viability, T/C [22] 102% | viability, T/C [23] 103% | viability, T/C [24] 104% | viability, T/C [25] 101% | viability, T/C [26] 101% | viability, T/C [27] 97.5% | viability, T/C [28] 99.6% | viability, T/C [29] 94.8% | viability, T/C [30] 102% | viability, T/C [31] 98.1% | viability, T/C [32] 99.9% | viability, T/C [33] 102% | viability, T/C [34] 93.7% | viability, T/C [35] 94% | viability, T/C [36] 97%

COc1cccc2c1C(=O)c1c(O)c3c(c(O)c1C2=O)CC(O)(C(=O)CO)CC3OC1CC(N)C(O)C(C)O1 (stereo not drawn) + Nc1ccc(C#CCN(C(=O)Cc2ncc(C(F)(F)F)cc2C(F)(F)F)c2ccc(F)cc2)nn1
5.58 µM: IC50 (second compound 0.0316 µM)
5.44 µM: IC50 (second compound 0.1 µM)
5.79 µM: IC50 (second compound 0.316 µM)
2.31 µM: IC50 (second compound 3.16 µM)
5.39 µM: IC50 (second compound 1 µM)
0.24 µM: IC50 (second compound 10 µM)
inactive: viability, T/C [1] 103% | viability, T/C [2] 105% | viability, T/C [3] 91.3% | viability, T/C [4] 84.9% | viability, T/C [5] 74.7% | viability, T/C [6] 28.3% | viability, T/C [7] 102% | viability, T/C [8] 103% | viability, T/C [9] 92.3% | viability, T/C [10] 87.9% | viability, T/C [11] 74.3% | viability, T/C [12] 24.9% | viability, T/C [13] 105% | viability, T/C [14] 101% | viability, T/C [15] 99.6% | viability, T/C [16] 85.4% | viability, T/C [17] 71% | viability, T/C [18] 32.1% | viability, T/C [19] 98.9% | viability, T/C [20] 105% | viability, T/C [21] 96.2% | viability, T/C [22] 80.7% | viability, T/C [23] 72.1% | viability, T/C [24] 28.2% | viability, T/C [25] 95.2% | viability, T/C [26] 93.4% | viability, T/C [27] 79.7% | viability, T/C [28] 75.4% | viability, T/C [29] 39.9% | viability, T/C [30] 17.5% | viability, T/C [31] 78.7% | viability, T/C [32] 75.2% | viability, T/C [33] 41.5% | viability, T/C [34] 14.5% | viability, T/C [35] 38.1% | viability, T/C [36] 14.8%
